Consider 98 compounds from ChEMBL document CHEMBL1134567, “Prediction of the aroma quality and the threshold values of some pyrazines using artificial neural networks” (J Med Chem, 2001).

Holding throughout (type): functional
A short description of experiment [1]: Evaluated for its olfactory detection threshold value and indicates quantitative measure of odour impression; No threshold value.
Experiment [2] is described as follows: Evaluated for its olfactory detection threshold value and indicates quantitative measure of odour impression.
A short description of experiment [3]: Olfactory detection threshold value and quantitative measure of odour impression; No threshold value.
A short description of experiment [4]: Evaluated for its olfactory detection threshold value and indicates quantitative measure of odor impression.

For the compound `COc1nc(C)cnc1C(C)(C)O`, the “Log 1/C” value in experiment [1] was “No threshold value”.
`CCCCCCCc1nccnc1OC`: the Log 1/C in experiment [2] was 6.9.
As to `Cc1cnc(C)c(CCC(C)C)n1`, in experiment [1], the “Log 1/C” value is “No threshold value”.
Regarding `CCSc1ncc(CC(C)CC)nc1C` (stereo not drawn), the Log 1/C in experiment [2] stood at 4.95.
In the case of `CCc1nccnc1OC`, in experiment [3], the “Log 1/C” value was “No threshold value”.
For `COc1nc(C)cnc1C(C)=O`, the “Log 1/C” value in experiment [1] was “No threshold value”.
Turning to `COc1cnccn1`, the “Log 1/C” value in experiment [3] is “No threshold value”.
With `Cc1nccnc1CC(C)C`, in experiment [2], the Log 1/C is 3.06.
On the same count and under the same terms, then `CCCCCc1cnc(C)c(C)n1`, with 3.3.
For the compound `CCCCCCCCc1nccnc1Sc1ccccc1`, the “Log 1/C” value in experiment [3] is “No threshold value”.
In experiment [2], `COc1nccnc1C(C)C` registered a Log 1/C of 6.8.
Still for that read-out and setting: then `CCC(C)Cc1cnc(OC)c(C)n1` (stereo not drawn), with 7.29.
As to `COc1ncc(C)nc1C(C)(C)O`, in experiment [1], the “Log 1/C” value was “No threshold value”.
Compound `CCCCCCCCCCc1nccnc1OCC` showed a Log 1/C in experiment [4] of 3.64.
Turning to `CCCCCc1nccnc1OCC`, in experiment [2], the Log 1/C came to 6.38.
Take `CCOc1nccnc1C`: the “Log 1/C” value in experiment [1] was “No threshold value”.
Regarding `CCOc1ncc(CC(C)C)nc1C`, the Log 1/C in experiment [2] worked out at 4.08.
The same measure, in the same setting: the result for `Cc1nccnc1N(C)C` reads 2.88; that for `CCOc1ncc(CC(C)CC)nc1C` (stereo not drawn), 4.54.
The same measure, in the same setting: then `CCCCc1nccnc1OC`, with 6.52.
With `CCSc1nccnc1C`, in experiment [1], the “Log 1/C” value is “No threshold value”.
Consider `C/C=C\CCc1nccnc1OC`, for which the Log 1/C in experiment [2] turned out to be 5.52.
On to `CCCCCc1nccnc1SC`, for which, in experiment [2], the Log 1/C amounted to 6.21.
On the same count and under the same terms, then `CCCc1nccnc1C`, with 3.36; and `CSc1nccnc1CC(C)C`, with 5.74; and `CCCc1nccnc1OC`, with 6.1.
`CCSc1cnc(CCC(C)CC)cn1` (stereo not drawn) had a Log 1/C in experiment [2] of 3.63.
On to `Cc1ncc(C(C)C)nc1C`, for which the Log 1/C in experiment [2] is 3.88.
Turning to `CCSc1nccnc1CC`, in experiment [1], the “Log 1/C” value was “No threshold value”.
In experiment [2], `CCCCCc1nccnc1SCC` displayed a Log 1/C of 5.32.
Same read-out and setting: then `CSc1nccnc1C(C)C`, with 6.55.
As to `Cc1ncc(CC(C)C)nc1C`, in experiment [1], the “Log 1/C” value is “No threshold value”.
`Cc1cnc(C)c(C)n1`: the “Log 1/C” value in experiment [3] was “No threshold value”.
In experiment [2], `COc1nccnc1CCC(C)C` yielded a Log 1/C of 7.46.
As for `CCOc1cnccn1`, the “Log 1/C” value in experiment [3] is “No threshold value”.
In the case of `COc1nc(C)cnc1C`, in experiment [1], the “Log 1/C” value is “No threshold value”.
In experiment [2], `CCC(C)Cc1nccnc1OC` (stereo not drawn) came in with a Log 1/C of 7.18.
Still for that read-out and setting: then `COc1ncc(CC(C)C)nc1C`, with 6.
Compound `CCCCCCCCc1nccnc1OCC` had a Log 1/C in experiment [4] of 5.07.
In the case of `COc1nc(C(C)=O)c(OC)nc1C`, the “Log 1/C” value in experiment [1] was “No threshold value”.
In turn, `CCCCc1cnccn1` registered a Log 1/C in experiment [2] of 2.53.
Turning to `COc1nccnc1CCCCCCC(C)C`, the “Log 1/C” value in experiment [3] was “No threshold value”.
With `Cc1nc(C)c(C)nc1C`, in experiment [1], the “Log 1/C” value is “No threshold value”.
`COc1ncc(C)nc1C(C)C`: the Log 1/C in experiment [2] was found to be 6.52.
Same read-out and setting: then `CCCCCc1nccnc1OC`, with 6.95; and `COc1nc(C)cnc1C(C)C`, with 6.57.
Same read-out and setting: then `Cc1nccnc1C(C)C`, with 3.93; and `CCC(C)c1nccnc1OC` (stereo not drawn), with 6.62; and `CC(C)Cc1cncc(N(C)C)n1`, with 1.55.
The same measure, in the same setting: then `CCOc1ncc(C(C)CC)nc1C` (stereo not drawn), with 4.21.
In the case of `CCSc1cnccn1`, the “Log 1/C” value in experiment [3] was “No threshold value”.
In the case of `COc1nc(C(C)C)c(OC)nc1C(C)C`, in experiment [2], the Log 1/C came to 2.52.
For `CCCCOc1cnccn1`, the “Log 1/C” value in experiment [3] was “No threshold value”.
For `CC(C)Cc1cnccn1`, the Log 1/C in experiment [2] came to 2.53.
Still for that read-out and setting: then `C/C=C/CCc1nccnc1OC`, with 6.1.
In turn, `CCCCCCCCCCc1nccnc1OC` displayed a Log 1/C in experiment [4] of 3.8.
Turning to `CCOc1nccnc1CC(C)C`, the “Log 1/C” value in experiment [3] was “No threshold value”.
On to `Cc1cnc(C)cn1`, for which the “Log 1/C” value in experiment [3] is “No threshold value”.
Turning to `COc1nc(C(C)C)c(OC)nc1C`, the Log 1/C in experiment [2] came to 3.45.
Turning to `CCc1cnc(C)c(C)n1`, the “Log 1/C” value in experiment [1] is “No threshold value”.
As to `CCCC(C)c1nccnc1OC` (stereo not drawn), in experiment [3], the “Log 1/C” value was “No threshold value”.
`C=CCCCc1nccnc1OC` came in with a Log 1/C in experiment [2] of 6.77.
The same measure, in the same setting: then `CCC(C)CCc1cnc(Oc2ccccc2)c(C)n1` (stereo not drawn), with 3.29.
In turn, `CCCCCCCCc1nccnc1SCC` yielded a Log 1/C in experiment [4] of 5.1.
In turn, `CCCCCCc1nccnc1OC` returned a Log 1/C in experiment [2] of 6.44.
With `COc1nccnc1C`, the “Log 1/C” value in experiment [3] was “No threshold value”.
Same read-out and setting: the result for `CSc1cncc(C)n1` reads “No threshold value”.
In turn, `COc1nccnc1CCCC(C)C` showed a Log 1/C in experiment [2] of 7.51.
Still for that read-out and setting: then `CCc1nccnc1CC`, with 5.13; and `CSc1ncc(CC(C)C)nc1C`, with 4.12; and `CCCC(C)Cc1cnc(SC)c(C)n1` (stereo not drawn), with 4.27.
The compound `CCCCCCCCc1nccnc1OC` had a Log 1/C in experiment [4] of 6.57.
As to `COc1nc(C)c(C)nc1CC(C)C`, in experiment [2], the Log 1/C came out at 2.79.
Consider `CSc1cnccn1`, for which the “Log 1/C” value in experiment [3] was “No threshold value”.
The compound `Cc1nc(CC(C)C)cnc1Oc1ccccc1` gave a Log 1/C in experiment [2] of 2.88.
For `CCCCc1nccnc1SCC`, in experiment [2], the Log 1/C was 4.69.
As to `COc1cncc(C)n1`, in experiment [3], the “Log 1/C” value is “No threshold value”.
Regarding `CCc1ncc(C)nc1C`, the “Log 1/C” value in experiment [1] is “No threshold value”.
As for `CCCc1nccnc1SC`, in experiment [2], the Log 1/C worked out at 5.23.
Regarding `CCc1cnccn1`, the “Log 1/C” value in experiment [3] was “No threshold value”.
As to `COc1nc(OC)c(C(C)C)nc1C`, in experiment [2], the Log 1/C amounted to 2.89.
Take `Cc1nccnc1C`: the “Log 1/C” value in experiment [3] was “No threshold value”.
Compound `CCc1cnc(C)cn1` returned a Log 1/C in experiment [4] of 2.45.
In experiment [2], `CC(C)c1cnc(Oc2ccccc2)cn1` registered a Log 1/C of 2.79.
Still for that read-out and setting: then `CCC(C)CCc1cnc(OC)c(C)n1` (stereo not drawn), with 5.24; and `CCOc1ncc(CCC(C)CC)nc1C` (stereo not drawn), with 4.87.
On the same count and under the same terms, then `COc1nc(C)c(OC)nc1C`, with 2.97; and `COc1ncc(C)nc1CC(C)C`, with 4.84.
The same measure, in the same setting: the result for `COc1nc(C)cnc1CC(C)C` reads 5.84.
Regarding `CCc1nc(C)cnc1C`, in experiment [1], the “Log 1/C” value is “No threshold value”.
Turning to `CNc1nccnc1C`, in experiment [3], the “Log 1/C” value was “No threshold value”.
The same measure, in the same setting: the result for `COc1nc(CC(C)C)cnc1CC(C)C` reads “No threshold value”.
`CCCCCc1cnccn1` displayed a Log 1/C in experiment [2] of 4.48.
As to `CCCCCCCCc1nccnc1SC`, in experiment [4], the Log 1/C amounted to 5.53.
On to `CCCCCCC(C)Cc1nccnc1OC` (stereo not drawn), for which the “Log 1/C” value in experiment [3] is “No threshold value”.
In experiment [2], `COc1nccnc1CC(C)C` registered a Log 1/C of 7.47.
Turning to `CSc1nccnc1C`, the “Log 1/C” value in experiment [3] is “No threshold value”.
`CCCC(C)Cc1nccnc1OC` (stereo not drawn) yielded a Log 1/C in experiment [2] of 7.38.
